Experiment [1] addresses T1, hCRTH2 receptor (Homo sapiens (Human), UniProt Q9Y5Y4). Kind of experiment: Radioligand displacement assay in presence of human serum albumin (HSA). The note with it: 3H-PGD2 2.5 nM, HEK293-hCRTH2 membrane fragments, Binding-Buffer-HSA with 0.5% human serum albumin instead of 0.1% BSA. How it is done:
(§1) First, recombinant HEK293-hCRTH2 cells were detached from culture plates into 5 ml buffer A/plate (Buffer A: 5 mM Tris, 1 mM MgCl2-6H2O pH=7.4) using a rubber policeman. Cells were then transferred into centrifugation tubes and centrifuged for 5 min at 400 g. The cell pellet was resuspended in the same buffer and tubes were frozen at −80° C. Cells were thawed and membrane fragments were generated by homogenization using a polytron homogenizer (30 seconds). The membrane fragments were then centrifuged at 3000 g for 20 minutes and resuspended in buffer C (Buffer C: 75 mM Tris, 25 mM MgCl2, 250 mM Saccharose pH 7.4). Aliquots of membrane fragments were stored at −20° C.
(§2) Binding assay was performed in a final assay volume of 250 μl. First, 25 μl of test compound, previously diluted in Binding-Buffer (Binding-Buffer: 50 mM Tris-Base, 100 mM NaCl, 1 mM EDTA, 0.1% BSA (protease free), 0.01% NaN3, 10 mM MnCl2 pH 7.0) was placed into each well. After addition of 75 μl Binding-Buffer, 50 μl of the radioligand ^3H-PGD2 (at 2.5 nM (220.000 dpm/well) from ANAWA ART0662) was added to each well. Binding assay was started by addition of 100 μl CRTH2 membrane fragments, reaching a final concentration of 20 μg/well. For non-specific binding, PGD2 was added to the reaction mixture to […] final concentration. This assay mix was incubated for 90 minutes at room temperature and then filtered through a GF/C filter 96-well plate which was pre-soaked for 3 hours in 0.5% polyethyleneimine (PEI). The filter-wells were washed three times with ice cold Binding-Buffer. Then, 40 μl of Microscint-40 (Packard) was added to each well and the retained radioactivity quantified in a Topcount (Packard).
Radioligand displacement assay in presence of human serum albumin (HSA) was performed as described above, with following modifications. Binding-Buffer-HSA: Binding-buffer+0.5% Sigma Albumin from Human serum A1887 (instead of 0.1% BSA). A volume of 25 μl test compound, previously diluted in Binding-Buffer-HSA was placed into each well. After addition of 75 μl Binding-Buffer-HSA, 50 μl of ^3H-PGD2 (at 2.5 nM (220.000 dpm/well) from ANAWA ART0662) was added to each well. Remaining protocol was identical as described above.
(In general: Displacement assays read how much labelled ligand stays bound in the presence of the test substance.)

The target of experiment [2] is T1, hCRTH2 receptor. As to the kind of experiment: hCRTH2 receptor membranes radioligand (3H-PGD2) displacement assay. As to conditions: 3H-PGD2 2.5 nM, HEK293-hCRTH2 membrane fragments, Binding-Buffer with 0.1% BSA. Here is the method: as §1, §2

T1 sequence (Q9Y5Y4 whole entry, the tested form may be a part): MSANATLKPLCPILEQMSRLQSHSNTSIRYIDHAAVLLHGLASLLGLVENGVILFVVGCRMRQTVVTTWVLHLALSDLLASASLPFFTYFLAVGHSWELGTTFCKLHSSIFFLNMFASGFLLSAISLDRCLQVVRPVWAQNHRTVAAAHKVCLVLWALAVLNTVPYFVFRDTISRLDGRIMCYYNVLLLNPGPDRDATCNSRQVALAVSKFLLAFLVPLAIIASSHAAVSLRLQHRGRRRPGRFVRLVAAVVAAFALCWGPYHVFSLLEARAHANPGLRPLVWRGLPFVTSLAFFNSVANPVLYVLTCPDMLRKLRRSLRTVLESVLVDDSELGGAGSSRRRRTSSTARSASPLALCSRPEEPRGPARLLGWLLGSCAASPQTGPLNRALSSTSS

As usually defined, the IC50 is the concentration that inhibits the measured activity by half. Turning to `CN(c1ncc(Cl)cn1)C1CCc2c(CC(=O)O)c3ccc(Cl)cc3n2C1` (stereo not shown) [Example 21, 2-(3-chloro-7-((5-chloropyrimidin-2-yl)(methyl)amino)-6,7,8,9-tetrahydropyrido[1,2-a]indol-10-yl)acetic acid], the IC50 on hCRTH2 receptor [1] amounted to 31 nM; at hCRTH2 receptor [2], 7 nM.

For the molecule `CN(c1ncc(Cl)cn1)C1CCc2c(CC(=O)O)c3ccc(C(F)(F)F)cc3n2C1` (stereo not shown) [Example 22, 2-(7-((5-chloropyrimidin-2-yl)(methyl)amino)-3-(trifluoromethyl)-6,7,8,9-tetrahydropyrido[1,2-a]indol-10-yl)acetic acid], the figures for the IC50 on hCRTH2 receptor [1] and on hCRTH2 receptor [2] were 38 nM and 9 nM, respectively.

With `CN(c1ncc(F)cn1)C1CCc2c(CC(=O)O)c3ccc(C(F)(F)F)cc3n2C1` (stereo not shown) [Example 24, 2-(7-((5-fluoropyrimidin-2-yl)(methyl)amino)-3-(trifluoromethyl)-6,7,8,9-tetrahydropyrido[1,2-a]indol-10-yl)acetic acid], the IC50 stood at 11 nM on hCRTH2 receptor [1] and 5 nM on hCRTH2 receptor [2].

Take `CN(c1nc2ccc(F)cc2s1)C1CCc2c(CC(=O)O)c3ccc(C(F)(F)F)cc3n2C1` (stereo not shown) [Example 26, 2-(7-((6-fluorobenzo[d]thiazol-2-yl)(methyl)amino)-3-(trifluoromethyl)-6,7,8,9-tetrahydropyrido[1,2-a]indol-10-yl)acetic acid]: the IC50 was 15 nM at hCRTH2 receptor [1] and 16 nM at hCRTH2 receptor [2].

On to `CN(c1nc2cc(F)ccc2o1)C1CCc2c(CC(=O)O)c3ccc(C(F)(F)F)cc3n2C1` (stereo not shown) [Example 28, 2-(7-((5-fluorobenzo[d]oxazol-2-yl)(methyl)amino)-3-(trifluoromethyl)-6,7,8,9-tetrahydropyrido[1,2-a]indol-10-yl)acetic acid], for which the values for the half-inhibitory concentration (IC50) on hCRTH2 receptor [1] and on hCRTH2 receptor [2] were 20 nM and 8 nM, respectively.

On to `CN(c1nc2cc(F)ccc2o1)C1CCc2c(CC(=O)O)c3ccc(Cl)cc3n2C1` (stereo not shown) [Example 31, 2-(3-chloro-7-((5-fluorobenzo[d]oxazol-2-yl)(methyl)amino)-6,7,8,9-tetrahydropyrido[1,2-a]indol-10-yl)acetic acid], for which the IC50 at hCRTH2 receptor [1] turned out to be 13 nM; at hCRTH2 receptor [2], 5 nM.

`O=C(O)Cc1c2n(c3cc(F)ccc13)CC(Nc1ncc(F)cn1)CC2` (stereo not shown) [Example 34, 2-(3-fluoro-7-((5-fluoropyrimidin-2-yl)amino)-6,7,8,9-tetrahydropyrido[1,2-a]indol-10-yl)acetic acid]: the IC50 was 304 nM on hCRTH2 receptor [1] and 9 nM on hCRTH2 receptor [2].

On to `O=C(O)Cc1c2n(c3cc(F)ccc13)CC(Nc1nc3cc(F)ccc3o1)CC2` (stereo not shown) [Example 35, 2-(3-fluoro-7-((5-fluorobenzo[d]oxazol-2-yl)amino)-6,7,8,9-tetrahydropyrido[1,2-a]indol-10-yl)acetic acid], for which the IC50 at hCRTH2 receptor [1] was 20 nM; on hCRTH2 receptor [2], 11 nM.

Consider `O=C(O)Cc1c2n(c3cc(Cl)ccc13)CC(Nc1ncc(F)cn1)CC2` (stereo not shown) [Example 36, 2-(3-chloro-7-((5-fluoropyrimidin-2-yl)amino)-6,7,8,9-tetrahydropyrido[1,2-a]indol-10-yl)acetic acid], for which the IC50 at hCRTH2 receptor [1] was determined as 465 nM; on hCRTH2 receptor [2] it was 65 nM.

`O=C(O)Cc1c2n(c3cc(Cl)ccc13)CC(Nc1ncc(Cl)cn1)CC2` (stereo not shown) [Example 37, 2-(3-chloro-7-((5-chloropyrimidin-2-yl)amino)-6,7,8,9-tetrahydropyrido[1,2-a]indol-10-yl)acetic acid]: the values for the IC50 on hCRTH2 receptor [1] and on hCRTH2 receptor [2] were 385 nM and 27 nM, respectively.

In the case of `Cc1cnc(N(C)C2CCc3c(CC(=O)O)c4ccc(Cl)cc4n3C2)nc1` (stereo not shown) [Example 38, 2-(3-chloro-7-(methyl(5-methylpyrimidin-2-yl)amino)-6,7,8,9-tetrahydropyrido[1,2-a]indol-10-yl)acetic acid], the IC50 on hCRTH2 receptor [1] is 246 nM; on hCRTH2 receptor [2], 2 nM.

As to `CN(c1ncc2ccccc2n1)C1CCc2c(CC(=O)O)c3ccc(Cl)cc3n2C1` (stereo not shown) [Example 39, 2-(3-chloro-7-(methyl(quinazolin-2-yl)amino)-6,7,8,9-tetrahydropyrido[1,2-a]indol-10-yl)acetic acid], the IC50 came out at 5 nM on hCRTH2 receptor [1] and 3 nM on hCRTH2 receptor [2].

Take `CN(c1ncc2cc(F)ccc2n1)C1CCc2c(CC(=O)O)c3ccc(Cl)cc3n2C1` (stereo not shown) [Example 40, 2-(3-chloro-7-((6-fluoroquinazolin-2-yl)(methyl)amino)-6,7,8,9-tetrahydropyrido[1,2-a]indol-10-yl)acetic acid]: the figures for the IC50 at hCRTH2 receptor [1] and on hCRTH2 receptor [2] were 4 nM and 5 nM, respectively.

On to `CN(c1ncc2ccc(F)cc2n1)C1CCc2c(CC(=O)O)c3ccc(Cl)cc3n2C1` (stereo not shown) [Example 41, 2-(3-chloro-7-((7-fluoroquinazolin-2-yl)(methyl)amino)-6,7,8,9-tetrahydropyrido[1,2-a]indol-10-yl)acetic acid], for which the IC50 on hCRTH2 receptor [1] worked out at 37 nM; on hCRTH2 receptor [2], 1 nM.

As for `CN(c1cnc2cc(F)ccc2n1)C1CCc2c(CC(=O)O)c3ccc(Cl)cc3n2C1` (stereo not shown) [Example 43, 2-(3-chloro-7-((6-fluoroquinoxalin-2-yl)(methyl)amino)-6,7,8,9-tetrahydropyrido[1,2-a]indol-10-yl)acetic acid], the IC50 at hCRTH2 receptor [1] was 12 nM; on hCRTH2 receptor [2], 2 nM.

On to `O=C(O)Cc1c2n(c3cc(Cl)ccc13)CC(N(CC(F)F)c1nc3cc(F)ccc3o1)CC2` (stereo not shown) [Example 44, 2-(3-chloro-7-((2,2-difluoroethyl)(5-fluorobenzo[d]oxazol-2-yl)amino)-6,7,8,9-tetrahydropyrido[1,2-a]indol-10-yl)acetic acid], for which the IC50 at hCRTH2 receptor [1] is 6 nM; at hCRTH2 receptor [2], 3 nM.

With `CCN(c1ncc(F)cn1)C1CCc2c(CC(=O)O)c3ccc(Cl)cc3n2C1` (stereo not shown) [Example 45, 2-(3-chloro-7-(ethyl(5-fluoropyrimidin-2-yl)amino)-6,7,8,9-tetrahydropyrido[1,2-a]indol-10-yl)acetic acid], the IC50 at hCRTH2 receptor [1] came out at 3 nM; at hCRTH2 receptor [2] it was 1 nM.

With `CC(C)N(c1nc2cc(F)ccc2o1)C1CCc2c(CC(=O)O)c3ccc(Cl)cc3n2C1` (stereo not shown) [Example 46, 2-(3-chloro-7-((5-fluorobenzo[d]oxazol-2-yl)(isopropyl)amino)-6,7,8,9-tetrahydropyrido[1,2-a]indol-10-yl)acetic acid], the values for the IC50 on hCRTH2 receptor [1] and at hCRTH2 receptor [2] were 5 nM and 3 nM, respectively.

For `COCCN(c1ncc(F)cn1)C1CCc2c(CC(=O)O)c3ccc(Cl)cc3n2C1` (stereo not shown) [Example 47, 2-(3-chloro-7-((5-fluoropyrimidin-2-yl)(2-methoxyethyl)amino)-6,7,8,9-tetrahydropyrido[1,2-a]indol-10-yl)acetic acid], the results for the IC50 at hCRTH2 receptor [1] and on hCRTH2 receptor [2] were 69 nM and 0.8 nM, respectively.

In the case of `CC(C)CN(c1nc2cc(F)ccc2o1)C1CCc2c(CC(=O)O)c3ccc(Cl)cc3n2C1` (stereo not shown) [Example 48, 2-(3-chloro-7-((5-fluorobenzo[d]oxazol-2-yl)(isobutyl)amino)-6,7,8,9-tetrahydropyrido[1,2-a]indol-10-yl)acetic acid], the IC50 at hCRTH2 receptor [1] was 6 nM; on hCRTH2 receptor [2], 2 nM.

Take `CCCN(c1ncc(F)cn1)C1CCc2c(CC(=O)O)c3ccc(Cl)cc3n2C1` (stereo not shown) [Example 49, 2-(3-chloro-7-((5-fluoropyrimidin-2-yl)(propyl)amino)-6,7,8,9-tetrahydropyrido[1,2-a]indol-10-yl)acetic acid]: the results for the IC50 on hCRTH2 receptor [1] and at hCRTH2 receptor [2] were 21 nM and 1 nM, respectively.

Regarding `CCN(c1nc2cc(F)ccc2o1)C1CCc2c(CC(=O)O)c3ccc(Cl)cc3n2C1` (stereo not shown) [Example 50, 2-(3-chloro-7-(ethyl(5-fluorobenzo[d]oxazol-2-yl)amino)-6,7,8,9-tetrahydropyrido[1,2-a]indol-10-yl)acetic acid], the IC50 at hCRTH2 receptor [1] stood at 9 nM; on hCRTH2 receptor [2], 1 nM.

`O=C(O)Cc1c2n(c3cc(Cl)ccc13)CC(N(CC1CC1)c1ncc(F)cn1)CC2` (stereo not shown) [Example 51, 2-(3-chloro-7-((cyclopropylmethyl)(5-fluoropyrimidin-2-yl)amino)-6,7,8,9-tetrahydropyrido[1,2-a]indol-10-yl)acetic acid]: the figures for the IC50 at hCRTH2 receptor [1] and on hCRTH2 receptor [2] were 9 nM and 0.6 nM, respectively.

The values are drawn from patent publication US9096595B2, “7-(heteroaryl-amino)-6,7,8,9-tetrahydropyrido[1,2-a]indol acetic acid derivatives and their use as prostaglandin D2 receptor modulators” (Actelion Pharmaceuticals Ltd, priority 2011, dated 2015).
